From publication PMC10673058, “In Silico and In Vitro Search for Dual Inhibitors of the Trypanosoma brucei and Leishmania major Pteridine Reductase 1 and Dihydrofolate Reductase” (Molecules, 2023)
pEC50, pIC50: −log10 of the molar value. Read-outs that look alike come from different tables or passages of the source.

How the values were obtained:
[1] = biological target: T1, TbDHFR (Trypanosoma brucei brucei, UniProt Q27783); test: Spectrophotometric enzyme inhibition assay, recombinant TbDHFR; format: biochemical; settings: read-out: IC50 TbDHFR
T1 construct: pET 11D::TbDHFRHis vector design for the recombinant overexpression of TbDHFR in E. coli; His; made in house; host or cells: E. coli BL21(DE3), vector pET 11D::TbDHFRHis
Protocol: (§1) Based on the in vitro assays against TbPTR1 and LmPTR1 performed in the previous works of our group, as well as the in silico results obtained from the current study, a total of 47 natural products were tested against the target enzymes.
The saturating conditions for TbDHFR and LmDHFR were determined using the diagrams depicted in Figures S17 and S19 in the Supplementary Materials.
(§2) The inhibitory effect of the selected natural products was investigated by testing the DMSO solution of each compound at a constant concentration of 100 μM for TbPTR1 and 50 μM for LmPTR1, TbDHFR, and LmDHFR, as well as hDHFR. The concentrations of the cofactor and substrates were set at the previously determined saturating conditions (Section 4.2.5). Each test compound was incubated for 20 min with the respective enzyme and NADPH to ensure a sufficient interaction time before the reaction was induced by the addition of the substrate. The enzymatic activity was determined in duplicates and correlated with a reference that contained just DMSO, instead of an inhibitor. The enzymatic activity of the reference was normalized to 100%.
(§3) The half-maximal inhibitory concentration (IC50) of the natural products was determined in triplicate, using at least five different inhibitor concentrations against a reference containing no inhibitor. The enzymatic activity was documented and analyzed and the IC50 value was determined by nonlinear regression using GraphPad Prism 9 (GraphPad Software Inc., La Jolla, CA, USA).

[2] = biological target: T2, hDHFR (Homo sapiens, UniProt P00374); test: Spectrophotometric enzyme inhibition assay, recombinant hDHFR (selectivity); format: biochemical; settings: for inhibition at 50 µM: set compound concentration of 50 μM, read-out: relative inhibition of hDHFR
T2 construct: His; host or cells: E. coli BL21 (DE3), vector pET 15b::hDHFRHis
T2 sequence (P00374 1-187): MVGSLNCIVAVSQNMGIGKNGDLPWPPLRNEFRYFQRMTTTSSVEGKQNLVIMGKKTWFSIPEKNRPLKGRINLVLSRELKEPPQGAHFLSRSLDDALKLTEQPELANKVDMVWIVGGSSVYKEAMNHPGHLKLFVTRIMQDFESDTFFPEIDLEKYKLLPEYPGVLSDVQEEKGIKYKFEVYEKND
Protocol: For 15 compounds, there was enough substance available to be tested in selectivity studies against hDHFR.
The used hDHFR concentration was 0.64 mg/mL, with a specific activity of 0.62 U/mg. All measurements were carried out using the saturating concentrations for dihydrofolate (100 μM) and NADPH (50 μM) in Buffer C (50 mM Tris/HCl (pH 7.6), 250 mM NaCl, 10 mM BME). The saturating conditions for hDHFR were determined using the diagrams depicted in Figure S20 in the Supplementary Materials.
as §2, §3

[3] = biological target: T3, TbPTR1 (Trypanosoma brucei brucei, UniProt O76290); test: Spectrophotometric enzyme inhibition assay, recombinant TbPTR1; format: biochemical; settings: for pEC50: read-out: EC50 TbPTR1 (footnote a)
T3 construct: His6 (N); made in house; host or cells: E. coli BL21 (DE3), vector pET 15b::TbPTR1His (strain from the group of M. Paola Costi, Modena)
T3 sequence (O76290 1-268): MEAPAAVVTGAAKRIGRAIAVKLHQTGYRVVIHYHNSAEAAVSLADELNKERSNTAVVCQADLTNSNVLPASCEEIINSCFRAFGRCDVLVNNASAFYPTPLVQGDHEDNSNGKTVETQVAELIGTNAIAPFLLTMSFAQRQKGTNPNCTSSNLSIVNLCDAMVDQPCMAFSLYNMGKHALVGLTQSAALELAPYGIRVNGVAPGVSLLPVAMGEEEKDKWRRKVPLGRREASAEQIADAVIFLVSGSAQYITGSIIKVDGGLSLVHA
Protocol: as §1, with “enzymes. […] The concentration-effect curves for the IC50 and EC50 values that were obtained in the present study are depicted in Supplementary Materials Figures S21–S42.” for “enzymes.”
(§4) The used TbPTR1 concentration was 3.23 mg/mL, with a specific activity of 0.03 U/mg. The measurements were carried out using the enzyme’s individual saturating concentrations for folic acid (8 μM) and NADPH (150 μM) in Buffer A (50 mM Tris/HCl (pH 7.6), 250 mM NaCl). For LmPTR1, the protein concentration was 5.02 mg/mL and the specific activity was calculated to be 0.29 U/mg. Buffer B (50 mM NaH2PO4 (pH 6.0), 100 mM NaCl) was used for all LmPTR1 measurements and the saturating concentrations amounted to 50 μM of folic acid and 200 μM of NADPH. The saturating conditions of the PTR1 enzymes were determined using the diagrams depicted in Figures S16 and S18 in the Supplementary Materials.
as §2, §3

[4] = biological target: T4, LmPTR1 (Leishmania major, UniProt Q01782); test: Spectrophotometric enzyme inhibition assay, recombinant LmPTR1; format: biochemical; settings: read-out: IC50 LmPTR1
T4 construct: His6 (N); made in house; host or cells: E. coli BL21 (DE3), vector pET 15b::LmPTR1His (strain from the group of M. Paola Costi, Modena)
T4 sequence (Q01782 1-288): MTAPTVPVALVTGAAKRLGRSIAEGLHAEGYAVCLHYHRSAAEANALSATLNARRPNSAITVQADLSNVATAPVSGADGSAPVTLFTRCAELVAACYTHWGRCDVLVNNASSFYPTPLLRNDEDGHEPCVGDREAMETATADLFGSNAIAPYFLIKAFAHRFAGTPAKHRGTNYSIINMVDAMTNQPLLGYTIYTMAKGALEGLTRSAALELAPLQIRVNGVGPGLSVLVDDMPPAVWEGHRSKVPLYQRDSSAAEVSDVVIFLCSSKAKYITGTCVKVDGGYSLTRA
Protocol: as §1, with “enzymes. […] The concentration-effect curves for the IC50 and EC50 values that were obtained in the present study are depicted in Supplementary Materials Figures S21–S42.” for “enzymes.”
as §4, §2, §3

[5] = biological target: T4, LmPTR1; parameters: method as in PMID 29211037; settings: from previous study; read-out: IC50 LmPTR1; cited from earlier work
[6] = biological target: T5, LmDHFR (Leishmania major, UniProt P07382); test: Spectrophotometric enzyme inhibition assay, recombinant LmDHFR; format: biochemical
T5 construct: The DNA fragment encoding LmDHFR was amplified by Phusion DNA polymerase; His6 (N); made in house; host or cells: E. coli BL21(DE3), vector pET 11D::LmDHFRHis
T5 sequence (P07382 26-229 limits assumed): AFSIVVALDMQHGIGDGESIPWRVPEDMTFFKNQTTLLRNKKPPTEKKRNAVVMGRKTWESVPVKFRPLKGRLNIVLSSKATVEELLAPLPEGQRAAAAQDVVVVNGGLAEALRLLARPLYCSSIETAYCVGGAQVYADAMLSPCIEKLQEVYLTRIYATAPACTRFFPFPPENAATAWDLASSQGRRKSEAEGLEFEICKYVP
Protocol: as §1, with “enzymes. […] The concentration-effect curves for the IC50 and EC50 values that were obtained in the present study are depicted in Supplementary Materials Figures S21–S42.” for “enzymes.”
The TbDHFR concentration was measured to be 0.04 mg/mL and a specific activity of 38.1 U/mg was calculated. The concentration of LmDHFR was 0.05 mg/mL with a specific activity of 56.2 U/mg. All measurements were carried out using the saturating concentrations for dihydrofolate (50 μM) and NADPH (150 μM) in Buffer C (50 mM Tris/HCl (pH 7.6), 250 mM NaCl, 10 mM BME). The saturating conditions for TbDHFR and LmDHFR were determined using the diagrams depicted in Figures S17 and S19 in the Supplementary Materials.
as §2, §3

T1 sequence (Q27783 28-238 limits assumed): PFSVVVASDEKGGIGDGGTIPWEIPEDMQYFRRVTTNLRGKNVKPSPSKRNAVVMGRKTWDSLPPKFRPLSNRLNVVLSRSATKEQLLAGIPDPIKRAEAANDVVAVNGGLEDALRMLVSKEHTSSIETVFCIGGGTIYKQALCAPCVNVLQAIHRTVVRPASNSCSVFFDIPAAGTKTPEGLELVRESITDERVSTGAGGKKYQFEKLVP

| Compound | pIC50 [1] | pIC50 [2] | pIC50 [4] | pIC50 ([3]; read-out: IC50 TbPTR1) | also measured |
| --- | --- | --- | --- | --- | --- |
| COc1c(CC=C(C)C)c(O)c([C@H](CC(C)C)c2c(O)c(CC=C(C)C)c(O)c(C(C)=O)c2O)c(O)c1C(C)=O [Compound 21, acrovestone] | 5.68 | 4.70 | < 4.30 |  | inhibition at 50 µM [2]: > 50%; pEC50 [3]: 4.43 |
| CC(C)=CCc1c(O)ccc(C(=O)CCc2ccc(O)cc2)c1O [Compound 16] | 4.93 |  | < 4.30 | 4.19 |  |
| O=c1[nH]c(=O)n([C@@H]2O[C@H](CO)[C@@H](O)[C@H]2O)c2nc(-c3ccc(Cl)cc3)cnc12 [Compound 18] | < 4.30 |  |  | 4.23 |  |
| O=C(/C=C/c1ccc(O[C@@H]2O[C@H](CO)[C@@H](O)[C@H](O)[C@H]2O)cc1)c1ccc(O)cc1O [Compound 7, isoliquiritin] |  | < 4.30 |  |  | pIC50 [5]: 4.07; pIC50 [3]: < 4.00; pIC50 [6]: 4.34 |
| CCC/C=C\C/C=C\CCCCCCCc1cccc(O)c1C(=O)O [Compound 11] | 6.70 | 5.62 | 4.99 | 4.70 | inhibition at 50 µM [2]: > 50%; pIC50 ([6]; read-out: IC50 LmDHFR): 5.59 |
| C=CC/C=C\C/C=C\CCCCCCCc1cccc(O)c1C(=O)O [Compound 12] |  |  |  | 4.66 |  |
| CC(C)=CCC/C(C)=C/COc1ccc2oc3cc(O)cc(O)c3c(=O)c2c1 [Compound 15] | 5.54 |  | < 4.30 |  | pEC50 [3]: 4.49 |
